Reference: the Deep4Chem optical property database

Experiment: solvent given as SMILES

## Cc1cc(C)c(C2=C3C=CC(c4ccc5ccccc5c4)=[N+]3[B-](F)(F)n3c2ccc3-c2ccc3ccccc3c2)c(C)c1
In ClC(Cl)Cl
  emission maximum: 618 nm

## COc1cc2c(cc1-c1ccncc1)Cc1c3c(c4c(c1-2)-c1cc(OC)c(-c2ccncc2)cc1C4)C(=O)N(CCC(C)C)C3=O
In C1CCOC1
  emission maximum: 456 nm

## COc1ccc(C#Cc2c(C#Cc3ccc(OC)cc3)c(C#Cc3ccc(OC)cc3)c(C#Cc3ccc(OC)cc3)c(C#Cc3ccc(OC)cc3)c2C#Cc2ccc(OC)cc2)cc1
In ClCCl
  emission maximum: 466 nm

## Fc1nc(F)c(F)c(C#Cc2nccnc2C#Cc2c(F)c(F)nc(F)c2F)c1F
In CC#N
  emission maximum: 440 nm

## Cc1cccc(-c2nc3sc4ccccc4c3s2)c1
In CS(C)=O
  emission maximum: 412 nm

## C#Cc1ccc2ccc3cccc4ccc1c2c34
In C1CCCCC1
  emission maximum: 383 nm
In CC#N
  emission maximum: 384 nm
In CO
  emission maximum: 383 nm
In ClCCl
  emission maximum: 384 nm

## CN(CCO)c1ccc(/N=N/c2ccc([N+](=O)[O-])cc2)cc1
In CO
  emission maximum: 580 nm
In OCC(O)CO
  emission maximum: 581 nm
In OCCO
  emission maximum: 583 nm
In Oc1ccccc1
  emission maximum: 581 nm

## CCOC(=O)c1ccc(C2=CC3=c4cc(-c5ccc(C(=O)OCC)cc5)c5nc(C(F)(F)C(F)(F)C(F)(F)F)nc6c(-c7ccc(C(=O)OCC)cc7)cc(c4c65)C4=CC(c5ccc(C(=O)OCC)cc5)=C5N=C(C(F)(F)C(F)(F)C(F)(F)F)N=C2C5C43)cc1 (stereo not given)
In C1CCOC1
  emission maximum: 523 nm

## CC(C)(C)c1ccc(-c2c(-c3ccc(N(c4ccccc4)c4ccccc4)cc3)cc(-c3ccc(N(c4ccccc4)c4ccccc4)cc3)c(-c3ccc(C(C)(C)C)cc3)c2-c2ccc(C(C)(C)C)cc2)cc1
In C1CCOC1
  emission maximum: 406 nm

## N#Cc1c(-n2c3ccccc3c3cc(Br)ccc32)c(-n2c3ccccc3c3cc(Br)ccc32)c(C#N)c(-n2c3ccccc3c3cc(Br)ccc32)c1-n1c2ccccc2c2cc(Br)ccc21
In Cc1ccccc1
  emission maximum: 543 nm

## CCOC(CN1C(=O)C2=C(c3cc4cc(C(C)(C)C)cc(C(C)(C)C)c4o3)N(CC(OCC)OCC)C(=O)C2=C1c1cc2cc(C(C)(C)C)cc(C(C)(C)C)c2o1)OCC
In ClC(Cl)Cl
  emission maximum: 594 nm

## CCCCCCCCC1(CCCCCCCC)c2cc(-c3ccc(C(=O)OC)cc3)ccc2-c2ccc(-c3ccc(C(=O)OC)cc3)cc21
In ClC(Cl)Cl
  emission maximum: 388 nm

## CCCCCCN1C(=O)c2cccc3cc(/N=C\c4c[nH]c5c4ccc4ccccc45)cc(c23)C1=O
In ClC(Cl)Cl
  emission maximum: 501 nm

## COc1ccc2c(CC(=O)NN)coc2c1
In C1CCOC1
  emission maximum: 381 nm
In CC#N
  emission maximum: 376 nm
In CC(C)=O
  emission maximum: 396 nm
In CCCCO
  emission maximum: 384 nm
In CCCO
  emission maximum: 396 nm
In CCO
  emission maximum: 374 nm
In CCOC(C)=O
  emission maximum: 368 nm
In CN(C)C=O
  emission maximum: 378 nm
In CO
  emission maximum: 378 nm
In ClCCl
  emission maximum: 402 nm

## c1ccc(-c2csc(-c3ccncc3)n2)cc1
In CC#N
  emission maximum: 498 nm
In CCO
  emission maximum: 407 nm
In CN(C)C=O
  emission maximum: 402 nm
In ClCCl
  emission maximum: 472 nm

## COC(=O)CCC1=CC(C#Cc2ccc(OC)cc2)=[N+]2C1=Cc1c(CCC(=O)OC)cc(C#Cc3ccc(OC)cc3)n1[B-]2(F)F
In ClCCl
  emission maximum: 682 nm

## N#Cc1ccc(/C=C/C=C/C2=NC3C(=O)NC(N)=NC3N2[C@H]2C[C@H](O)[C@@H](CO)O2)cc1 (stereo not given in full)
In C1COCCO1
  emission maximum: 486 nm
In CC#N
  emission maximum: 526 nm
In CO
  emission maximum: 522 nm

## COc1ccc(-c2csc(/C(C#N)=N\Nc3ccc(C#N)cc3)n2)cc1
In CC#N
  emission maximum: 505 nm
In CCO
  emission maximum: 508 nm
In Cc1ccccc1
  emission maximum: 494 nm
In ClCCl
  emission maximum: 527 nm

## N#Cc1ccc2cc[nH]c2c1
In C1CCOC1
  emission maximum: 345 nm
In C1COCCO1
  emission maximum: 342 nm
In CC#N
  emission maximum: 354 nm
In CC(C)O
  emission maximum: 356 nm
In CCO
  emission maximum: 358 nm
In CO
  emission maximum: 367 nm
In CS(C)=O
  emission maximum: 363 nm
In O
  emission maximum: 375 nm
In OCC(F)(F)F
  emission maximum: 364 nm

## CCCC1=Cc2nc1ccc1[nH]c(cc1CCC)c1nc(c(N)cc3[nH]c2cc3CCC)C(CCC)=C1
In Cc1ccccc1
  emission maximum: 729 nm

## c1ccc2c(c1)CCc1c-2cnc2c1-c1ccccc1CC2
In C1CCOC1
  emission maximum: 356 nm
In CC#N
  emission maximum: 358 nm
In CCCCCC
  emission maximum: 358 nm
In CCOC(C)=O
  emission maximum: 358 nm
In CO
  emission maximum: 361 nm
In CS(C)=O
  emission maximum: 360 nm
In Cc1ccccc1
  emission maximum: 362 nm
In ClCCl
  emission maximum: 363 nm

## Nc1ccc2c(-c3ccc(Br)cc3)c3ccc(=[NH2+])cc-3oc2c1
In CCO
  emission maximum: 532 nm

## CC(C)(C)c1ccc2c(c1)sc1[n+]2[B-](F)(F)n2c(c3cccc4cccc2c43)=N1
In C1CCOC1
  emission maximum: 504 nm
In CC#N
  emission maximum: 502 nm
In CCCCCC
  emission maximum: 504 nm
In Cc1ccccc1
  emission maximum: 506 nm
In ClCCl
  emission maximum: 534 nm
